Here are results for 34 molecules from US8916702B2 (priority 2012, dated 2014).

One may read the EC50 as the concentration giving half of the maximal effect.

Each structure is given as a SMILES string. Where two headings read alike, the source gives them in different places.

For this test, the system named is HCV pseudoparticles (genotype 1a HCV E1 and E2 envelope, H77C isolate). In words: microbe, parasite or virus in culture. In kind it is cell-based. The following applies: Hepatitis C virus.
The mark [1] stands for this setting: Huh-7, read-out: Activity (EC50 class), HCV pseudoparticles (genotype 1a, H77C) in Huh7 cells, EC50 expressed as class A/B.
Where [2] appears, read: Huh-7, 48 h, read-out: Activity (EC50 class), HCV pseudoparticles, Huh7 cells, luciferase 2 days after infection, average of duplicates.
Where [3] appears, read: Huh-7, 48 h, read-out: Activity (EC50 class), HCV pseudoparticle infection of Huh7 cells, luciferase 2 days after infection, EC50 expressed as class A/B.
Where [4] appears, read: Huh-7, 48 h, HCV pseudoparticle infection of Huh7 cells, luciferase 2 days after infection, average of duplicates.

Consider `CC(C)(CNC(=O)C(N)=O)CNC(=O)c1ccc(Nc2nc(NC3(c4ccc(Cl)cc4)CC3)nc(OCC(F)(F)F)n2)cc1-c1ccccc1` [Compound 3511], for which, under setting [1], the concentration giving a half-maximal response (EC50) is 0.01 to 10 nM. As to `COC(=O)[C@@H](CCNC(=O)C(=O)Nc1ccc(Cl)nc1)NC(=O)c1ccc(Nc2nc(NC3(c4ccc(Cl)cc4)CC3)nc(OCC(F)(F)F)n2)cc1` [Compound 3570], the EC50 under setting [1] fell in the range of 0.01 to 10 nM. Regarding `COC(=O)[C@H](CNC(=O)C(=O)Nc1cccc(C(C)C)c1)NC(=O)c1ccc(Nc2nc(NC3(c4ccc(Cl)cc4)CC3)nc(OCC(F)(F)F)n2)cc1` [Compound 3702], under setting [2], the EC50 is 0.01 to 10 nM. Regarding `O=C(NCCc1cccnc1)C(=O)NCC[C@H](NC(=O)c1ccc(Nc2nc(NC3(c4ccc(Cl)cc4)CC3)nc(OCC(F)(F)F)n2)cc1)C(=O)O` [Compound 1337], under setting [3], the EC50 was 0.01 to 10 nM. On to `COC(=O)c1cccc(-c2ccccc2NC(=O)C(=O)NCC(C)(C)CNC(=O)c2ccc(Nc3nc(NC4(c5ccc(Cl)cc5)CC4)nc(OCC(F)(F)F)n3)cc2)c1` [Compound 3045], for which, under setting [1], the half-maximal effective concentration (EC50) lay within 0.01 to 10 nM. For `O=C(NCC(O)CNC(=O)c1ccc(Nc2nc(NC3(c4ccc(Cl)cc4)CC3)nc(OCC(F)(F)F)n2)cc1)C(=O)N1CCCCC1` (centres unmarked) [Compound 3465], the EC50 under setting [1] lay within 0.01 to 10 nM. As to `CC(C)(CNC(=O)C(=O)NCc1ccc(F)cc1)CNC(=O)c1ccc(Nc2nc(NC3(c4ccc(Cl)cc4)CC3)nc(OCC(F)(F)F)n2)cc1` [Compound 1549], under setting [3], the concentration giving a half-maximal response (EC50) was in the range of 0.01 to 10 nM. The same measure, in the same setting: the same measure for `CC1CC(NC(=O)C(=O)NCC[C@H](NC(=O)c2ccc(Nc3nc(NC4(c5ccc(Cl)cc5)CC4)nc(OCC(F)(F)F)n3)cc2)C(=O)O)CC(C)(C)C1` (some centres unmarked) [Compound 1127]: 0.01 to 10 nM; for `COC(=O)[C@H](CCNC(=O)C(=O)NC(CCO)C1CC1)NC(=O)c1ccc(Nc2nc(NC3(c4ccc(Cl)cc4)CC3)nc(OCC(F)(F)F)n2)cc1` (some centres unmarked) [Compound 1391]: 0.01 to 10 nM. With `CCOc1ccc(NC(=O)C(=O)NCC[C@H](NC(=O)c2ccc(Nc3nc(NC4(c5ccc(Cl)cc5)CC4)nc(OCC(F)(F)F)n3)cc2)C(=O)OC)cc1` [Compound 3327], the EC50 under setting [1] was in the range of 0.01 to 10 nM. Turning to `O=C(NCC[C@H](NC(=O)c1ccc(Nc2nc(NC3(c4ccc(Cl)cc4)CC3)nc(OCC(F)(F)F)n2)cc1)C(=O)O)C(=O)Nc1ccc(-c2ncco2)cc1` [Compound 3547], the EC50 runs as follows: (Huh-7, 48 h, HCV pseudoparticles (genotype 1a, H77C) in Huh7 cells, average of duplicate, luciferase 2 days after infection) 2.09 nM; under setting [1], 0.01 to 10 nM.

As for `COC(=O)[C@H](CNC(=O)C(=O)NCCc1cccc(OC)c1)NC(=O)c1ccc(Nc2nc(NC3(c4ccc(Cl)cc4)CC3)nc(OCC(F)(F)F)n2)cc1` [Compound 1286], the concentration giving a half-maximal response (EC50) under setting [3] fell in the range of 0.01 to 10 nM. `Cc1ccc(NC(=O)C(=O)NCC(C)(C)CNC(=O)c2ccc(Nc3nc(NC4(c5ccc(Cl)cc5)CC4)nc(OCc4ccc(C(F)(F)F)cc4)n3)cc2)cc1` [Compound 3851]: the EC50 under setting [2] is 0.01 to 10 nM. Take `COC(=O)[C@H](CCNC(=O)C(=O)NC1CCC(C(C)(C)C)CC1)NC(=O)c1ccc(Nc2nc(NC3(c4ccc(Cl)cc4)CC3)nc(OCC(F)(F)F)n2)cc1` (some centres unmarked) [Compound 1108]: under setting [3], the EC50 is 0.01 to 10 nM. Consider `C[C@H](NC(=O)C(=O)NCC[C@H](NC(=O)c1ccc(Nc2nc(NC3(c4ccc(Cl)cc4)CC3)nc(OCC(F)(F)F)n2)cc1)C(=O)O)C1CCCCC1` [Compound 1212], for which the EC50 under setting [4] was determined as 0.07 nM and the EC50 under setting [3] fell in the range of 0.01 to 10 nM. As for `COC(=O)[C@H](CCNC(=O)C(=O)Nc1ccc(F)c(F)c1)NC(=O)c1ccc(Nc2nc(NC3(c4ccc(Cl)cc4)CC3)nc(OCC(F)(F)F)n2)cc1` [Compound 1505], the half-maximal effective concentration (EC50) under setting [3] is 0.01 to 10 nM.

Consider `COC(=O)[C@H](CCNC(=O)C(=O)Nc1ccc(OCCc2ccccn2)cc1)NC(=O)c1ccc(Nc2nc(NC3(c4ccc(Cl)cc4)CC3)nc(OCC(F)(F)F)n2)cc1` [Compound 3315], for which the EC50 under setting [1] was in the range of 0.01 to 10 nM. The same measure, in the same setting: then `CC(C)(CNC(=O)C(=O)Nc1ccc(F)cc1Cl)CNC(=O)c1ccc(Nc2nc(NC3(c4ccc(Cl)cc4)CC3)nc(OCC(F)(F)F)n2)cc1` [Compound 3405], with 0.01 to 10 nM. As to `COC(=O)[C@H](CCNC(=O)C(=O)Nc1ccc(F)cc1F)NC(=O)c1ccc(Nc2nc(NC3(c4ccc(Cl)cc4)CC3)nc(OCC(F)(F)F)n2)cc1` [Compound 1501], under setting [3], the EC50 was 0.01 to 10 nM. Consider `CC(CNC(=O)C(=O)NCC[C@H](NC(=O)c1ccc(Nc2nc(NC3(c4ccc(Cl)cc4)CC3)nc(OCC(F)(F)F)n2)cc1)C(=O)O)c1ccccc1` (some centres unmarked) [Compound 1327], for which the EC50 under setting [3] lay in the range of 0.01 to 10 nM.

Regarding `O=C(NCC[C@@H](NC(=O)c1ccc(Nc2nc(NC3(c4ccc(Cl)cc4)CC3)nc(OCC(F)(F)F)n2)cc1)C(=O)O)C(=O)Nc1cc(F)c(F)c(F)c1F` [Compound 3051], the EC50 under setting [1] is 0.01 to 10 nM. With `COC(=O)[C@H](CNC(=O)C(=O)Nc1cccc(-c2cnco2)c1)NC(=O)c1ccc(Nc2nc(NC3(c4ccc(Cl)cc4)CC3)nc(OCC(F)(F)F)n2)cc1` [Compound 3696], the EC50 under setting [2] is 0.01 to 10 nM.

As for `CCC(CC)NC(=O)C(=O)NCC[C@H](NC(=O)c1ccc(Nc2nc(NC3(c4ccc(Cl)cc4)CC3)nc(OCC(F)(F)F)n2)cc1)C(=O)O` [Compound 1126], the EC50 under setting [3] lay in the range of 0.01 to 10 nM. With `COC(=O)[C@H](CCNC(=O)C(=O)Nc1cccc(Oc2ccccn2)c1)NC(=O)c1ccc(Nc2nc(NC3(c4ccc(Cl)cc4)CC3)nc(OCC(F)(F)F)n2)cc1` [Compound 3602], the EC50 under setting [2] lay in the range of 0.01 to 10 nM. `COC(=O)[C@H](CNC(=O)C(=O)Nc1ccncc1)NC(=O)c1ccc(Nc2nc(NC3(c4ccc(Cl)cc4)CC3)nc(OCC(F)(F)F)n2)cc1` [Compound 1258]: the EC50 under setting [3] was 0.01 to 10 nM. With `CC(C)(CNC(=O)C(=O)Nc1cccnc1)CNC(=O)c1ccc(Nc2nc(NC3(c4ccc(Cl)cc4)CC3)nc(OCC(F)(F)F)n2)cc1` [Compound 3245], the EC50 under setting [1] was in the range of 0.01 to 10 nM. As for `COc1ccc(NC(=O)C(=O)NCC(C)(C)CNC(=O)c2ccc(Nc3nc(NC4(c5ccc(Cl)cc5)CC4)nc(OCC(F)(F)F)n3)cc2)c(OC)n1` [Compound 3077], the EC50 under setting [1] lay in the range of 0.01 to 10 nM. Turning to `Cc1ccc(NC(=O)C(=O)NCC(C)(C)CNC(=O)c2ccc(Nc3nc(NC4(c5ccc(Cl)cc5)CC4)nc(OCC(F)(F)F)n3)cc2F)c(Cl)c1` [Compound 3664], the EC50 reads like this: (Huh-7, 48 h, HCV pseudoparticles, Huh7 cells, luciferase 2 days after infection, average of duplicates) 0.038 nM; under setting [2], 0.01 to 10 nM. As for `CC(C)(CNC(=O)C(=O)Nc1cccc2c1-c1ccccc1C2=O)CNC(=O)c1ccc(Nc2nc(NC3(c4ccc(Cl)cc4)CC3)nc(OCC(F)(F)F)n2)cc1` [Compound 3344], the EC50 under setting [1] fell in the range of 0.01 to 10 nM.

Consider `COC(=O)[C@H](CNC(=O)C(=O)Nc1ccc(Cn2ccnc2)cc1)NC(=O)c1ccc(Nc2nc(NC3(c4ccc(Cl)cc4)CC3)nc(OCC(F)(F)F)n2)cc1` [Compound 3202], for which the EC50 under setting [1] fell in the range of 0.01 to 10 nM. The same measure, in the same setting: the same measure for `CC(C)(CNC(=O)C(=O)Nc1ccccn1)CNC(=O)c1ccc(Nc2nc(NC3(c4ccc(Cl)cc4)CC3)nc(OCC(F)(F)F)n2)cc1` [Compound 3248]: 0.01 to 10 nM. In the case of `COc1ccc(CNC(=O)C(=O)NCC[C@H](NC(=O)c2ccc(Nc3nc(NC4(c5ccc(Cl)cc5)CC4)nc(OCC(F)(F)F)n3)cc2)C(=O)O)c(OC)c1` [Compound 1194], the EC50 under setting [3] was in the range of 0.01 to 10 nM. As for `O=C(NC[C@H](NC(=O)c1ccc(Nc2nc(NC3(c4ccc(Cl)cc4)CC3)nc(OCC(F)(F)F)n2)cc1)C(=O)O)C(=O)Nc1cc[nH]n1` [Compound 1353], the EC50 by setting is: under setting [4], 1.66 nM; under setting [3], 0.01 to 10 nM. In the case of `COc1ccc(NC(=O)C(=O)NCC(C)(C)CNC(=O)c2ccc(Nc3nc(NC4(c5ccc(Cl)cc5)CC4)nc(OCC(F)(F)F)n3)cc2)cc1` [Compound 3007], the EC50 under setting [1] fell in the range of 0.01 to 10 nM.
